Results on five compounds are retold here after patent publication US20140200188A1, “2'-FLUORO SUBSTITUTED CARBA-NUCLEOSIDE ANALOGS FOR ANTIVIRAL TREATMENT” (priority 2010, published 2014).

As usually defined, the pEC50 is the negative decadic logarithm of the EC50, by convention in mol/L. What is called pIC50 is the negative decadic logarithm of the IC50, by convention in mol/L. Low readings indicate a large IC50, high ones a small IC50.

The structures appear in SMILES notation. pEC50, pIC50: −log10 of the molar value.

The subject of assay [1] is Influenza A virus (A/Hong Kong/8/68). As to the kind of experiment: Influenza A antiviral assay (H3N2), virus-induced cytopathic effect in MDCK cells. Type of assay: cell-based. The note with it: 120 h, Influenza A/Hong Kong/8/68 (H3N2), MOI 0.03, five day incubation, Cell-titer Glo, read-out: EC50 against the influenza virus. As to the method:
MDCK cells were seeded in 96-well plates at a density of 1e5 cells per well in 100 μL of MEM culture medium with 10% FBS. Compounds were 3-fold serially diluted in complete MEM culture medium, with 100 μM as the highest concentration. Each concentration was tested in duplicate. Prior to infection, cells were washed once with 200 μL serum-free MEM. Influenza A virus (A/Hong Kong/8/68, Advanced Biotechnology Inc, Columbia, Md.) was added to cells at MOI 0.03 in 100 ul serum-free MEM containing 27 U/mL trypsin (Worthington, Lakewood, N.J.). After 10 minute incubation at room temperature, 100 μL compound dilutions were added to infected cells for a final volume of 200 μL. After five day incubation at 37° C., virus-induced cytopathic effect was determined by adding Cell-titer Glo viability reagents (Promega, Madison, Wis.) and measuring luminescence on a Victor Luminescence plate reader (Perkin-Elmer, Waltham, Mass.). The cytotoxicity of the compounds in MDCK cells was determined in replicate plates in the same way as in antiviral activity assays, except no virus was added to the cell culture. EC50 and CC50 values were calculated by non-linear regression of multiple data sets using XLFit software (IBDS, Guildford, UK).
In general terms: Protection from cytopathic effect is a common read-out in antiviral testing.

Assay [2] concerns the target Influenza RNA polymerase (Influenza A/PR8/34 (H1N1) virus lysate) (Influenza A virus, UniProt P03431). The assay can be described thus: Influenza RNA polymerase inhibition (IC50) assay. The assay is classed as biochemical.

As for `Nc1ncnn2c([C@@H]3O[C@H](CO)[C@@H](O)[C@H]3F)ccc12` [Compound 1, (2R,3R,4R,5S)-5-(4-aminopyrrolo[1,2-f][1,2,4]triazin-7-yl)-4-fluoro-2-(hydroxymethyl)-tetrahydrofuran-3-ol], in assay [1], the pEC50 was 4.90 to 4.98.
`C[C@@]1(c2ccc3c(N)ncnn23)O[C@H](COP(=O)(O)OP(=O)(O)OP(=O)(O)O)[C@@H](O)[C@H]1F` [Compound 9, ((2R,3R,4R,5S)-5-(4-aminopyrrolo[1,2-f][1,2,4]triazin-7-yl)-4-fluoro-3-hydroxy-5-methyltetrahydrofuran-2-yl)methyl tetrahydrogen triphosphate] showed a pIC50 in assay [2] of 5.53 to 5.68.
For the compound `N#C[C@@]1(c2ccc3c(N)ncnn23)O[C@H](COP(=O)(O)OP(=O)(O)OP(=O)(O)O)[C@@H](O)[C@H]1F` [Compound 10, ((2R,3R,4R,5R)-5-(4-aminopyrrolo[1,2-f][1,2,4]triazin-7-yl-5-cyano-4-fluoro-3-hydroxytetrahydrofuran-2-yl)methyltetrahydrogen triphosphate], the pIC50 in assay [2] is 3.94 to 4.31.
`Nc1ncnn2c([C@@H]3O[C@H](COP(=O)(O)OP(=O)(O)OP(=O)(O)O)[C@@H](O)[C@H]3F)ccc12` [Compound 11, ((2R,3R,4R,5S)-5-(4-aminopyrrolo[1,2-f][1,2,4]triazin-7-yl-4-fluoro-3-hydroxy-tetrahydrofuran-2-yl)methyltetrahydrogen triphosphate] gave a pIC50 in assay [2] of 5.80 to 6.02.
In turn, `Nc1nc(F)nn2c([C@@H]3O[C@H](COP(=O)(O)OP(=O)(O)OP(=O)(O)O)[C@@H](O)[C@H]3F)ccc12` [Compound 21, ((2R,3R,4R,5S)-5-(4-amino-2-fluoropyrrolo[1,2-f][1,2,4]triazin-7-yl)-4-fluoro-3-hydroxytetrahydrofuran-2-yl)methyl tetrahydrogen triphosphate] had a pIC50 in assay [2] of 5.73 to 6.01.
